Like-named read-outs stand apart in the source and are kept apart here.
Assays:
patients = conditions: cited from earlier work
[1] = system: women with sexual dysfunction; experiment: external application of misoprostol to the clitoris or/and to the vagina; assay type: in vivo; conditions: for local vasodilation after external application: used externally to the clitoris or/and to the vagina
Source text: Because of the local vasodilation is caused tumescence of the clitoris, intence bleeding of the vagina and feeling of sexual desire. Simultaneously, in women with anorgasmia of various causes, promote after masturbation or sexual intercourse, the coming of orgasm.
Method of application: 0.1 (or more, depending on responce) are applied to the clitoris or/and to the vagina.
(§1) As had already been mentioned, misoprostol is an extremely hydrophile molecule compared with other prostaglandins of E1 series (e.g. with alprostadil which can be dissolved in alcohol but her solubility in water is only 8000 mcg/100 ml at 35° C.).

solubility in water = assay type: physicochemical
Procedure: as §1

[2] = at 35° C.; cited from earlier work

| SMILES | carcinogenic or teratogenic effect (patients; in vivo) | effect on uterus (patients; in vivo) | undesirable effects in oral therapy (patients; oral therapy) | time of appearance of the result ([1]; external application of the example forms) | systematic undesirable effects ([1]; high once only doses >1000 mcg to the clitoris or to the vagina) | misoprostol action in the presence of Polysorbate "80" ([1]; in the presence of Polysorbate "80") | change of misoprostol activity as a function of pH ([1]; pH of the pharmacotechnical form) | undesirable effects in the presence of a-cyclodextrine ([1]; presence of a-cyclodextrine) | local vasodilation after external application [1] | solubility in water (solubility in water) | solubility in water [2] |
| --- | --- | --- | --- | --- | --- | --- | --- | --- | --- | --- | --- |
| CCCCC(C)(O)C/C=C/[C@H]1[C@H](O)CC(=O)[C@@H]1CCCCCCC(=O)OC (mixture of isomers) [Misoprostol, (11a,13E)-(±)-11,16-Dihydroxy-16-methyl-9-oxoprost-13-en-1-oic acid methyl ester] | hasn't been accused | irritation of the smooth uterine fibbers | male impotence | 20 to 40 min | shudder, feeling of hard ship, excitement and diarrhea | important reduction or/and neutralization | No significant changes | reduces the undesirable effects | strong local vasodilation | can be dissolved in water |  |
| CCCCC(C)(O)C/C=C/[C@H]1[C@H](O)CC(=O)[C@@H]1CCCCCCC(=O)O (mixture of isomers) [misoprostol acid] |  |  |  |  |  |  |  |  | Equally strong topical vasodilation |  |  |
| CCCCC[C@H](O)/C=C/[C@H]1[C@H](O)CC(=O)[C@@H]1CCCCCCC(=O)O [alprostadil] |  |  |  |  |  |  |  |  |  |  | 8000 mcg/100 ml |

Reference: patent US6897239B1, “Use of misoprostol and/or metabolites of misoprostol for treating sexual dysfunction in women” (Lavipharm S.A., priority 1998, dated 2005)
